Reference: paper PMC9176655, “Nebulized fusion inhibitory peptide protects cynomolgus macaques from measles virus infection” (Research Square, 2022)
Blank lines part the entries; values can stand above or below the molecule they belong to.

How the values were obtained:
MeV IC323-eGFP [1] = assay: Serial viral passaging in presence of peptide, sequencing for escape variants; conditions: 1μM peptide added after infection, 8 serial passages on Vero SLAM cells, 100 PFU per passage, sequencing of viral RNA
MeV IC323-eGFP [2] = assay: Nebulized peptide in MeV-infected cynomolgus macaques; conditions: absence of fluorescent rash, PBMC infection, viremia, viral shedding, MeV-specific immune response
MeV [3] = assay: Plaque reduction assay on Vero-hSLAM cells; conditions: prototype mesh nebulizer
[4] = Laser diffraction and nebulizer performance of aerosol from prototype mesh nebulizer; assay type: physicochemical; conditions: 3 ml of 4 mg/ml, mean + SD of four devices
Experimental: The aerodynamic performances of the aerosols generated by the prototype mesh nebulizer were determined by laser diffraction using a Spraytec™ instrument (Malvern Instruments Ltd., Malvern, UK) and the Spraytec inhalation cell (Malvern Instruments Ltd., Malvern, UK) connected to an aspiration carried out by a vacuum pump set to 30–50L/min [69]. The prototype mesh nebulizers (n=4) were loaded with 3 ml of either NaCl 0.9% or the HCR4 peptide (4 mg/ml, dissolved as described above) and then connected to the inhalation cell. Nebulization duration was notified at the end of the complete aerosolization of the loaded 3 ml. Diffraction data and volume distribution were automatically registered by the Spraytec software.
The output of nebulizer was determined by the difference between the weight of the nebulizer before and after nebulization and was expressed in percentage of the loaded volume. The output rate of each nebulizer (in ml/min) was then determined as the ratio between the output and the nebulization duration. At least, the residual volume corresponding to the volume of liquid remaining in the reservoir at the end of the nebulization was also determined by weighting the nebulizer before loading it and after nebulization.
25 Table S1. […]
28 1 VMD for Volume Median Diameter, presents the mean size of generated aerosols, measured by […]

[5] = Solubility of peptide for nebulization; assay type: physicochemical; conditions: dissolved in filtered Milli-Q water to 4 mg/ml, pH adjusted to 7, HEPES buffer
MeV [6] = conditions: cell culture and organotypic brain cultures; cited from earlier work
MeV [7] = conditions: intranasal administration, cited from earlier work
Source text: MeV uses several receptors to infect target cells. […] Infection is initiat ...

[8] = cynomolgus monkey, in vivo

Compound: CC[C@H](C)[C@H](NC(=O)[C@H](C)NC(=O)[C@H](CC(N)=O)NC(=O)CNC(=O)[C@H](CC(C)C)NC(=O)[C@H](CC(N)=O)NC(=O)[C@@H](NC(=O)CNC(=O)[C@@H](NC(=O)[C@H](CC(=O)O)NC(=O)[C@H](CC(C)C)NC(=O)[C@H](CCCNC(=N)N)NC(=O)[C@H](CCC(=O)O)NC(=O)[C@H](CC(C)C)NC(=O)[C@H](CO)NC(=O)[C@@H](NC(=O)[C@@H]1CCCN1C(=O)[C@@H]1CCCN1)[C@@H](C)CC)C(C)C)[C@@H](C)O)C(=O)N[C@@H](C)C(=O)N[C@@H](CCCCN)C(=O)N[C@@H](CC(C)C)C(=O)N[C@@H](CCC(=O)O)C(=O)N[C@@H](CC(=O)O)C(=O)N[C@@H](C)C(=O)N[C@@H](CCCCN)C(=O)N[C@@H](CCC(=O)O)C(=O)N[C@@H](CC(C)C)C(=O)N[C@@H](CC(C)C)C(=O)N[C@@H](CCC(=O)O)C(=O)N[C@@H](CO)C(=O)N[C@@H](CO)C(=O)N[C@@H](CC(=O)O)C(=O)N[C@@H](CCC(N)=O)C(=O)N[C@H](C(=O)N[C@@H](CC(C)C)C(=O)N[C@@H](CCCNC(=N)N)C(=O)NCC(=O)N[C@@H](CO)C(=O)NCC(=O)N[C@@H](CO)C(=O)NCC(=O)N[C@@H](CSC1CC(=O)N(CCCC(=O)NCCOCCOCCOCCOCCC(=O)NCCN(CCNC(=O)CCOCCOCCOCCOCCNC(=O)CCCN2C(=O)CC(SC[C@H](NC(=O)CNC(=O)[C@H](CO)NC(=O)CNC(=O)[C@H](CO)NC(=O)CNC(=O)[C@H](CCCNC(=N)N)NC(=O)[C@H](CC(C)C)NC(=O)[C@@H](NC(=O)[C@H](CCC(N)=O)NC(=O)[C@H](CC(=O)O)NC(=O)[C@H](CO)NC(=O)[C@H](CO)NC(=O)[C@H](CCC(=O)O)NC(=O)[C@H](CC(C)C)NC(=O)[C@H](CC(C)C)NC(=O)[C@H](CCC(=O)O)NC(=O)[C@H](CCCCN)NC(=O)[C@H](C)NC(=O)[C@H](CC(=O)O)NC(=O)[C@H](CCC(=O)O)NC(=O)[C@H](CC(C)C)NC(=O)[C@H](CCCCN)NC(=O)[C@H](C)NC(=O)[C@@H](NC(=O)[C@H](C)NC(=O)[C@H](CC(N)=O)NC(=O)CNC(=O)[C@H](CC(C)C)NC(=O)[C@H](CC(N)=O)NC(=O)[C@@H](NC(=O)CNC(=O)[C@@H](NC(=O)[C@H](CC(=O)O)NC(=O)[C@H](CC(C)C)NC(=O)[C@H](CCCNC(=N)N)NC(=O)[C@H](CCC(=O)O)NC(=O)[C@H](CC(C)C)NC(=O)[C@H](CO)NC(=O)[C@@H](NC(=O)[C@@H]3CCCN3C(=O)[C@@H]3CCCN3)[C@@H](C)CC)C(C)C)[C@@H](C)O)[C@@H](C)CC)[C@@H](C)CC)C(=O)O)C2=O)CCO[C@H]2CC[C@@]3(C)C(=CC[C@H]4[C@@H]5CC[C@H]([C@H](C)CCCC(C)C)[C@@]5(C)CC[C@@H]43)C2)C1=O)C(=O)O)[C@@H](C)CC (stereo partly shown) [HRC4]
Mutations in MeV F after 8th passage (MeV IC323-eGFP [1]): no mutations
Development of MeV infection (MeV IC323-eGFP [2]): abrogated the development of MeV infection in two out of three animals
Antiviral activity after versus before nebulization (MeV [3]): did not cause any loss of activity
VMD ([4]; laser diffraction (Spraytec)): 4 μm
< 5µm ([4]; percentage of particles smaller than 5 µm): Approximately 58%
Solubility [5]: soluble in water
Inhibition of the fusion process (MeV [6]): inhibited the fusion process
Survival of mice (MeV [7]; humanized transgenic mouse models of lethal measles disease): significant increase in survival of mice
Viral titer in cotton rat lungs (MeV [7]): reduction of the viral titer in cotton rat lungs

Deposition in macaque, Lungs [8]: 11.4 +/- 3.1%
Compound: O=C([O-])CN(CCN(CC(=O)[O-])CC(=O)[O-])CCN(CC(=O)[O-])CC(=O)[O-].[99Tc+4] [99mTC-DTPA, DTPA radiolabeled with technetium 99m]
